In patent publication US10344014B2, “Amorphous form of tetracyclic compound” (Chugai Seiyaku Kabushiki Kaisha, priority 2014, dated 2019):

What was measured:
[1] = Solubility by shake flask method, 37° C. (Example 6); format: physicochemical
Method: Solubility of the amorphous form and form I crystals of 9-ethyl-6,6-dimethyl-8-(4-morpholin-4-yl-piperidin-1-yl)-11-oxo-6,11-dihydro-5H-benzo[b]carbazole-3-carbonitrilemonohydrochloride was examined using a shake flask method (37° C.).

[2] = Solubility of compound A (form I crystals) in solvents (Example 2); format: physicochemical
Method: Solubility of 9-ethyl-6,6-dimethyl-8-(4-morpholin-4-yl-piperidin-1-yl)-11-oxo-6,11-dihydro-5H-benzo[b]carbazole-3-carbonitrilemonohydrochloride (hereinafter, a compound A) to each solvent was evaluated.
5 mL of each of the solvents described in Table 5 was added to 5 mg of form I crystals of the compound A. When undissolved crystals were observed, the mixture was stirred at room temperature and the crystals were dissolved using ultrasound (step 1). After the processing described, when undissolved crystals were observed the mixture was further stirred in a water bath at about 50° C. (step 2).
When the crystals were dissolved completely, the form I crystals of the compound A were further added (step 3).
The procedure of the steps 1 to 3 was repeated.
For CH2Cl2, the step 2 and the later step were performed at room temperature.

CCc1cc2c(cc1N1CCC(N3CCOCC3)CC1)C(C)(C)c1[nH]c3cc(C#N)ccc3c1C2=O.Cl [Form I crystal, 9-ethyl-6,6-dimethyl-8-(4-morpholin-4-yl-piperidin-1-yl)-11-oxo-6,11-dihydro-5H-benzo[b]carbazole-3-carbonitrilemonohydrochloride]
Solubility ([1]; Acetate buffer pH 4.5, equilibration 1 hour): 0.4 µg/mL
Solubility ([1]; Acetate buffer pH 4.5, equilibration 24 hours, limit of quantitation 0.0004 mg/mL): <Lower than limit of
Solubility ([1]; First solution for dissolution test (Japanese Pharmacopoeia, 16th edition), equilibration 1 hour): 1.2 µg/mL
Solubility ([1]; First solution for dissolution test (Japanese Pharmacopoeia, 16th edition), equilibration 24 hours): 1.3 µg/mL
Solubility ([1]; Phosphate buffer pH 8.0, equilibration 1 hour, limit of quantitation 0.0004 mg/mL): <Lower than limit of
Solubility ([1]; Phosphate buffer pH 8.0, equilibration 24 hours, limit of quantitation 0.0004 mg/mL): <Lower than limit of
Solubility ([1]; Simulated intestinal fluid (SIFsp), equilibration 1 hour, limit of quantitation 0.0004 mg/mL): <Lower than limit of
Solubility ([1]; Simulated intestinal fluid (SIFsp), equilibration 24 hours, limit of quantitation 0.0004 mg/mL): <Lower than limit of
Solubility ([1]; Solution for dissolution test (4% Triton-X100 added to the first solution for dissolution test), equilibration 1 hour): 364.1 µg/mL
Solubility ([1]; Solution for dissolution test (4% Triton-X100 added to the first solution for dissolution test), equilibration 24 hours): 410.2 µg/mL
Solubility ([1]; Water, equilibration 1 hour): 28.6 µg/mL
Solubility ([1]; Water, equilibration 24 hours): 25.1 µg/mL

CCc1cc2c(cc1N1CCC(N3CCOCC3)CC1)C(C)(C)c1[nH]c3cc(C#N)ccc3c1C2=O.Cl [compound A, 9-ethyl-6,6-dimethyl-8-(4-morpholin-4-yl-piperidin-1-yl)-11-oxo-6,11-dihydro-5H-benzo[b]carbazole-3-carbonitrilemonohydrochloride]
Solubility of compound A in solvent (dissolved or not) ([2]; 1,4-dioxane, 1 mg/mL, about 50° C. while stirring): N/N (N: not dissolved)
Solubility of compound A in solvent (dissolved or not) ([2]; 1,4-dioxane, 1 mg/mL, room temperature): N/N (N: not dissolved)
Solubility of compound A in solvent (dissolved or not) ([2]; 70% EtOH, 1 mg/mL, room temperature): Y/— (Y: dissolved)
Solubility of compound A in solvent (dissolved or not) ([2]; 70% EtOH, 2 mg/mL, room temperature): Y/— (Y: dissolved)
Solubility of compound A in solvent (dissolved or not) ([2]; 70% EtOH, 4 mg/mL, room temperature): Y/— (Y: dissolved)
Solubility of compound A in solvent (dissolved or not) ([2]; 70% EtOH, 6 mg/mL, about 50° C. while stirring): Y (Y: dissolved)
Solubility of compound A in solvent (dissolved or not) ([2]; 70% EtOH, 6 mg/mL, room temperature): N (N: not dissolved)
Solubility of compound A in solvent (dissolved or not) ([2]; 70% MeCN, 1 mg/mL, room temperature): Y/— (Y: dissolved)
Solubility of compound A in solvent (dissolved or not) ([2]; 70% MeCN, 2 mg/mL, room temperature): Y/— (Y: dissolved)
Solubility of compound A in solvent (dissolved or not) ([2]; 70% MeCN, 4 mg/mL, room temperature): Y/— (Y: dissolved)
Solubility of compound A in solvent (dissolved or not) ([2]; 70% MeCN, 6 mg/mL, room temperature): Y/— (Y: dissolved)
Solubility of compound A in solvent (dissolved or not) ([2]; 70% MeCN, 8 mg/mL, room temperature): Y/— (Y: dissolved)
Solubility of compound A in solvent (dissolved or not) ([2]; 70% MeCN, 10 mg/mL, about 50° C. while stirring, *formation of solids was observed inside the test tube): Y (Y: dissolved)
Solubility of compound A in solvent (dissolved or not) ([2]; 70% MeCN, 10 mg/mL, room temperature): N (N: not dissolved)
Solubility of compound A in solvent (dissolved or not) ([2]; 70% MeOH, 1 mg/mL, room temperature): Y/— (Y: dissolved)
Solubility of compound A in solvent (dissolved or not) ([2]; 70% MeOH, 2 mg/mL, room temperature): Y/— (Y: dissolved)
Solubility of compound A in solvent (dissolved or not) ([2]; 70% MeOH, 4 mg/mL, about 50° C. while stirring): Y (Y: dissolved)
Solubility of compound A in solvent (dissolved or not) ([2]; 70% MeOH, 4 mg/mL, room temperature): N (N: not dissolved)
Solubility of compound A in THF (dissolved or not) ([2]; 70% THF, 1 mg/mL, room temperature): Y/— (Y: dissolved)
Solubility of compound A in THF (dissolved or not) ([2]; 70% THF, 6 mg/mL, room temperature): Y/— (Y: dissolved)
Solubility of compound A in THF (dissolved or not) ([2]; 70% THF, 8 mg/mL, room temperature): Y/— (Y: dissolved)
Solubility of compound A in THF (dissolved or not) ([2]; 70% THF, 10 mg/mL, room temperature): Y/— (Y: dissolved)
Solubility of compound A in THF (dissolved or not) ([2]; 70% THF, 12 mg/mL, room temperature): Y/— (Y: dissolved)
Solubility of compound A in THF (dissolved or not) ([2]; 70% THF, 14 mg/mL, room temperature): Y/— (Y: dissolved)
Solubility of compound A in solvent (dissolved or not) ([2]; 70% acetone, 1 mg/mL, room temperature): Y/— (Y: dissolved)
Solubility of compound A in solvent (dissolved or not) ([2]; 70% acetone, 2 mg/mL, room temperature): Y/— (Y: dissolved)
Solubility of compound A in solvent (dissolved or not) ([2]; 70% acetone, 4 mg/mL, room temperature): Y/— (Y: dissolved)
Solubility of compound A in solvent (dissolved or not) ([2]; 70% acetone, 6 mg/mL, room temperature): Y/— (Y: dissolved)
Solubility of compound A in solvent (dissolved or not) ([2]; 70% acetone, 8 mg/mL, about 50° C. while stirring): Y (Y: dissolved)
Solubility of compound A in solvent (dissolved or not) ([2]; 70% acetone, 8 mg/mL, room temperature): N (N: not dissolved)
Solubility of compound A in THF (dissolved or not) ([2]; 80% THF, 1 mg/mL, room temperature): Y/— (Y: dissolved)
Solubility of compound A in THF (dissolved or not) ([2]; 80% THF, 4 mg/mL, room temperature): Y/— (Y: dissolved)
Solubility of compound A in THF (dissolved or not) ([2]; 80% THF, 6 mg/mL, room temperature): Y/— (Y: dissolved)
Solubility of compound A in THF (dissolved or not) ([2]; 80% THF, 8 mg/mL, room temperature): Y/— (Y: dissolved)
Solubility of compound A in THF (dissolved or not) ([2]; 80% THF, 10 mg/mL, room temperature): Y/— (Y: dissolved)
Solubility of compound A in THF (dissolved or not) ([2]; 80% THF, 12 mg/mL, room temperature): Y/— (Y: dissolved)
Solubility of compound A in THF (dissolved or not) ([2]; 90% THF, 1 mg/mL, room temperature): Y/— (Y: dissolved)
Solubility of compound A in THF (dissolved or not) ([2]; 90% THF, 3 mg/mL, room temperature): Y/— (Y: dissolved)
Solubility of compound A in THF (dissolved or not) ([2]; 90% THF, 5 mg/mL, about 50° C. while stirring): N/N (N: not dissolved)
Solubility of compound A in THF (dissolved or not) ([2]; 90% THF, 5 mg/mL, room temperature): N/N (N: not dissolved)
Solubility of compound A in THF (dissolved or not) ([2]; 100% THF, 1 mg/mL, about 50° C. while stirring): N/N (N: not dissolved)
Solubility of compound A in THF (dissolved or not) ([2]; 100% THF, 1 mg/mL, room temperature): N/N (N: not dissolved)
Solubility of compound A in solvent (dissolved or not) ([2]; CH2Cl2, 1 mg/mL, room temperature): N/— (N: not dissolved)
Solubility of compound A in solvent (dissolved or not) ([2]; DMSO, 1 mg/mL, room temperature): Y/— (Y: dissolved)
Solubility of compound A in solvent (dissolved or not) ([2]; DMSO, 2 mg/mL, room temperature): Y/— (Y: dissolved)
Solubility of compound A in solvent (dissolved or not) ([2]; DMSO, 4 mg/mL, about 50° C. while stirring): Y (Y: dissolved)
Solubility of compound A in solvent (dissolved or not) ([2]; DMSO, 4 mg/mL, room temperature): N (N: not dissolved)
Solubility of compound A in solvent (dissolved or not) ([2]; EtOAc, 1 mg/mL, about 50° C. while stirring): N/N (N: not dissolved)
Solubility of compound A in solvent (dissolved or not) ([2]; EtOAc, 1 mg/mL, room temperature): N/N (N: not dissolved)
Solubility of compound A in solvent (dissolved or not) ([2]; t-BuOH, 1 mg/mL, about 50° C. while stirring): N/N (N: not dissolved)
Solubility of compound A in solvent (dissolved or not) ([2]; t-BuOH, 1 mg/mL, room temperature): N/N (N: not dissolved)
